Assay results: patent US9657037B2, “Pyrrole compounds with silicon incorporation” (COUNCIL OF SCIENTIFIC AND INDUSTRIAL RESEARCH, priority 2013, dated 2017)
Converted amounts (≈) assume the structure as drawn. Read-outs that look alike come from different tables or passages of the source.

Tests used:
[1] = tested on: Mycobacterium tuberculosis H37Rv; assay: Antitubercular activity, growth inhibition by Alamar-Blue / resazurin microtiter assay; format: cell-based
[2] = tested on: Mycobacterium tuberculosis H37Rv; conditions: according to literature (Biava. M et. al; J. Med. Chem 2008; 51; 3644); cited from earlier work

Row | Compound | MIC ([1]; H37Rv, 7H9-OADC media with 0.5% glycerol and 1 mg ml−1 tryptone, 37° C., 96-well plates, visual readout, read-out: MIC) [µg/mL] | MIC [2] [µg/mL] | MIC ([1]; H37RV) [µg/mL]
1 | Cc1c(CN2CCN(C)CC2)cc(-c2ccc(Cl)cc2)n1-c1ccc(Cl)cc1 [BM212, 1,5-diaryl-2-methyl-3-(4-methylpiperazin-1-yl)methyl-pyrrole, reference compound] | 1.56 (≈ 3.76 µM) | 0.7 (≈ 1.69 µM) | –
2 | Cc1c(CN2CC[Si](C)(C)CC2)cc(-c2ccc(Cl)cc2)n1-c1ccc(Cl)cc1 [Compound 9, 1-((1,5-bis(4-chlorophenyl)-2-methyl-1H-pyrrol-3-yl)methyl)-4,4-dimethyl-1,4-azasilinane] | – | – | 0.04 (≈ 0.0902 µM)
3 | CSc1ccc(-c2cc(CN3CC[Si](C)(C)CC3)c(C)n2-c2ccc(F)cc2)cc1 [Compound 10a, 1-((1-(4-fluorophenyl)-2-methyl-5-(4-(methylthio)phenyl)-1H-pyrrol-3-yl)methyl)-4,4-dimethyl-1,4-azasilinane] | – | – | 0.08 (≈ 0.182 µM)
4 | CSc1ccc(-c2c(CN3CC[Si](C)(C)CC3)cc(C)n2-c2ccc(F)cc2)cc1 [Compound 10b, 1-((1-(4-fluorophenyl)-5-methyl-2-(4-(methylthio)phenyl)-1H-pyrrol-3-yl)methyl)-4,4-dimethyl-1,4-azasilinane] | – | – | 1.56 (≈ 3.56 µM)
5 | Cc1c(CN2CC[Si](C)(C)CC2)cc(-c2ccc(C(C)C)cc2)n1-c1ccc(Cl)cc1 [Compound 11a, 1-((1-(4-chlorophenyl)-5-(4-isopropylphenyl)-2-methyl-1H-pyrrol-3-yl)methyl)-4,4-dimethyl-1,4-azasilinane] | – | – | 0.04 (≈ 0.0887 µM)
6 | CSc1ccc(-c2cc(CN3CC[Si](C)(C)CC3)c(C)n2-c2ccc(C(C)C)cc2)cc1 [Compound 12a, 1-((1-(4-isopropylphenyl)-2-methyl-5-(4-(methylthio)phenyl)-1H-pyrrol-3-yl)methyl)-4,4-dimethyl-1,4-azasilinane] | – | – | 0.04 (≈ 0.0864 µM)
7 | CSc1ccc(-c2c(CN3CC[Si](C)(C)CC3)cc(C)n2-c2ccc(C(C)C)cc2)cc1 [Compound 12b, 1-((1-(4-isopropylphenyl)-5-methyl-2-(4-(methylthio)phenyl)-1H-pyrrol-3-yl)methyl)-4,4-dimethyl-1,4-azasilinane] | – | – | 1.25 (≈ 2.7 µM)
8 | CCc1ccc(-n2c(-c3ccc(Cl)cc3)cc(CN3CC[Si](C)(C)CC3)c2C)cc1 [Compound 13, 1-((5-(4-chlorophenyl)-1-(4-ethylphenyl)-2-methyl-1H-pyrrol-3-yl)methyl)-4,4-dimethyl-1,4-azasilinane] | – | – | 0.08 (≈ 0.183 µM)
9 | COc1ccc(-c2c(CN3CC[Si](C)(C)CC3)cc(C)n2-c2ccc(F)cc2)cc1 [Compound 14, 1-((1-(4-fluorophenyl)-2-(4-methoxyphenyl)-5-methyl-1H-pyrrol-3-yl)methyl)-4,4-dimethyl-1,4-azasilinane] | – | – | 3.12 (≈ 7.38 µM)
10 | Cc1c(CN2CC[Si](C)(C)CC2)cc(-c2ccc(Cl)cc2)n1-c1ccccc1 [Compound 15, 1-((5-(4-chlorophenyl)-2-methyl-1-phenyl-1H-pyrrol-3-yl)methyl)-4,4-dimethyl-1,4-azasilinane] | – | – | 0.04 (≈ 0.0978 µM)
11 | CCc1ccc(-c2cc(CN3CC[Si](C)(C)CC3)c(C)n2-c2ccc(OC)cc2)cc1 [Compound 16, 1-((5-(4-ethylphenyl)-1-(4-methoxyphenyl)-2-methyl-1H-pyrrol-3-yl)methyl)-4,4-dimethyl-1,4-azasilinane] | – | – | 0.08 (≈ 0.185 µM)
12 | Cc1ccc(-c2cc(CN3CC[Si](C)(C)CC3)c(C)n2-c2ccc(F)cc2)cc1 [Compound 17, 1-((1-(4-fluorophenyl)-2-methyl-5-(p-tolyl)-1H-pyrrol-3-yl)methyl)-4,4-dimethyl-1,4-azasilinane] | – | – | 0.04 (≈ 0.0984 µM)
13 | CCOc1ccc(-c2c(CN3CC[Si](C)(C)CC3)cc(C)n2-c2ccc(OC)cc2)cc1 [Compound 18, 1-((2-(4-ethoxyphenyl)-1-(4-methoxyphenyl)-5-methyl-1H-pyrrol-3-yl)methyl)-4,4-dimethyl-1,4-azasilinane] | – | – | 5 (≈ 11.1 µM)
14 | Cc1c(CN2CC[Si](C)(C)CC2)cc(-c2ccc(Cl)cc2)n1-c1ccc(C(C)C)cc1 [Compound 19, 1-((5-(4-chlorophenyl)-1-(4-isopropylphenyl)-2-methyl-1H-pyrrol-3-yl)methyl)-4,4-dimethyl-1,4-azasilinane] | – | – | 0.04 (≈ 0.0887 µM)
